Assay results from patent US9005969B2, “Generation of novel bone forming cells (monoosteophils) from LL-37 treated monocytes” (City of Hope, priority 2010, dated 2015).

Legend:
monocytes [1] = experiment: Cytokine multiplex analysis of supernatants of differentiated monocytes; type: cell-based, human; parameters: GM-CSF release / MIP-1α release / MIP-1β release / MIG release / RANTES release / MCP-1 release / IL-2R release / VEGF release / G-CSF release / HGF release / FGF-Basic release / IL-4 release / IL-7 release / IFN-α release / IFN-γ release: unit not given here; settings: for FGF-Basic release / G-CSF release / HGF release / IFN-α release / IFN-γ release / IL-2R release / IL-4 release / IL-7 release / MCP-1 release / MIG release / MIP-1α release / MIP-1β release / RANTES release / VEGF release / GM-CSF release: supernatant, monocytes differentiated 6 days, Mean ± SEM
Description: (§1) This study was approved by the Institutional Human Subject's Review Board (City of Hope National Medical Center). Peripheral blood mononuclear cells (PBMCs) were isolated from citrated blood by centrifugation over Ficoll-Paque Plus (GE healthcare biosciences, Pittsburgh, Pa., USA) density gradient. Monocytes were separated using EasySep® Human Monocyte Enrichment Kit (StemCell Technologies Inc, Vancouver, Canada) from PBMCs. The purified monocytes were stained with anti-CD14-FITC and checked by using flow cytometry FACSCanton II. Monocytes with >95% purity were suspended at 1×10^6 cells/mL in RPMI 1640 medium supplement with 10% FBS (FBS contained <5 pg/100 mL LPS).
(§2) After isolation of monocytes as described in the examples above, monocytes were treated with serial dose of LL-37 (0.625 μM, 1.25 μM, 2.5 μM, 5 μM, or 10 μM) for differentiation for 3 days, 6 days, 14 days or more. After incubating for 6 days, cultures were fed every 2 days by removing half of the supernatant and adding fresh medium. For macrophage differentiation, monocytes were treated with medium only (Falzoni et al. 1995), with 100 ng/mL LPS (Palucka et al. 1999), 10 ng/mL GM-CSF (macrophage 1, Mφ1), or 50 ng/mL M-CSF (macrophage 2, Mφ2) for 6 days (Verreck et al. 2004). Monocyte-derived DCs were generated with 1,000 U/mL GM-CSF and 500 units/mL IL-4 (Verreck et al. 2004) or GM-CSF and 1000 U/mL IFNα (Tosello et al. 2009). Osteoclasts were differentiated from monocytes in the presence of RANKL and M-CSF (both at 25 ng/mL) (Sorensen et al. 2007).
Fresh monocytes were plated at 1×10^6 cells/mL in RPMI 1640 medium containing 10% FBS in 48-well plates and incubated with medium only, LL-37, LPS, GM-CSF, M-CSF, M-CSF/RANKL for 6 days, or/and 14 days and 21 days. Supernatant was collected and analyzed using the Human Cytokine 30-Plex antibody bead kit from Biosource International Inc., including IL-1-β, IL-1 ra, IL-2, IL-2R, IL-4, IL-5, IL-6, IL-7, IL-8, IL-10, IL-12, IL-13, IL-15, IL-17, TNFα, IFNα, IFNγ, G-CSF, GM-CSF, MIP-1α, MIP-1β, MIG, RANTES, eotaxin, MCP-1, IP-10, VEGF, HGF, FGF-basic, and […]. Cytokine concentrations were calculated using Bio-Plex Manager 3.0 software with an eight-parameter, curve-fitting algorithm applied for standard curve calculations (Zhang et al. 2008b).

monocytes [2] = experiment: Monocyte differentiation and survival (morphology, cell number); type: cell-based, human
Description: as §1
Negatively isolated monocytes at the concentration of 1×10^6/mL were incubated in […] medium with 10% FBS in the presence or absence of LL-37. […] The maximum effect occurred at the dose of 5 μM LL-37 after which higher doses (≧10 μM) led to decreased cell numbers due to toxicity of LL-37 >10 μM (Zhang et al. 2008a; Johansson et al. 1998). After 14 days, the cell number of untreated controls decreased further, but the LL-37-differentiated monocytes survived with an apparent further increase in the diameter of the round adherent cells. […] There was no evidence of cell-cell fusion in the creation of giant cells. Together these analyses indicate that LL-37 can progressively differentiate monocytes into large round adherent cells at early times with giant cells and irregular shaped cells appearing at later times.
as §2
Monocytes were plated in culture media and treated with LL-37 (dose shown in the figures), LPS (100 ng/mL), GM-CSF (10 ng/mL), M-CSF (50 ng/mL), GM-CSF (1,000 U/mL)/IL-4 (500 units/mL), GM-CSF (1,000 U/mL)/IFNα (1,000 U/mL), or MCSF/RANKL (both at 25 ng/mL) and photographed with the Leica DMI 3000B (Leica Microsystems Inc, Bonnockburn, Ill. 60015) inverted microscope.

monocytes [3] = experiment: Bone resorption assay on BioCoat Osteologic Discs (phase contrast, SEM, von Kossa); type: cell-based, human
Protocol: The resorbing activity was evaluated by using BioCoat™ Osteologic™ Discs purchased from BD Biosciences as a mineral matter in 24-well plate. […] The plates were washed by rinsing distilled water and pit formation was observed by light microscopy (Yuasa et al. 2007) and scanning electron microscopy (SEM). […]
BioCoat™ Osteologic™ Discs fixed in 2.5% glutaraldehyde in 0.1 M phosphate buffer, pH 7.2 (buffer A) for 1 hour from bone resorption assay were washed three times in buffer A, postfixed with 1% osmium tetroxide in buffer A, then dehydrated in graded ethanol. The 100% ethanol solution was then replaced by propylene oxide, and the cells were embedded in Eponate. Thin sections were stained with uranyl acetate and lead citrate and examined with a FEI TECNAI G2 electron microscope.
Discs were photographed using phase contrast microscopy (magnification 200×).

monocytes [4] = experiment: Phagocytosis of fluorescent labeled latex beads; type: cell-based, human; settings: 6-day differentiated cells, beads 1:500, 1 hour at 37° C.
Protocol: 6-day LL-37-, medium-, LPS-, GM-CSF-, and M-CSF-differentiated monocytes (1×10^6/mL) in tissue culture medium supplemented with 10% FBS in a 24-well plate were mixed with fluorescent labeled latex beads at a multiplicity ratio of 1:500, and incubated for 1 hour at 37° C. After being washed three times, cells were analyzed using FACSCanton II and Flowjo software.

monocytes [5] = experiment: Flow cytometry of cell surface markers; type: cell-based, human; settings: 6 days
Description: For cell surface staining, cells were washed with PBS, blocked with 10% human serum in PBS, stained with isotype controls and antibodies described in the figures, washed 3 times with 1% BSA PBS, and analyzed with a FACSCanton II. For intracellular staining, cells were washed with PBS, fixed with 1% paraformaldehyde in PBS, permeabilized in PBS buffer containing 0.1% saponin (Sigma-Aldrich) and 2% BSA, and stained with primary isotype controls and antibodies shown in the figures. After washing with PBS containing 1% BSA and 0.1% saponin, cells were stained with secondary Alexa 488 conjugated antibodies. Stained cells were assessed with a FACSCanton II cytometer, and analyzed using Flowjo software.

monocytes [6] = settings: cited from earlier work

Molecule | FGF-Basic release (monocytes [1]) | G-CSF release (monocytes [1]) | HGF release (monocytes [1]) | IFN-α release (monocytes [1]) | IFN-γ release (monocytes [1]) | IL-2R release (monocytes [1]) | IL-4 release (monocytes [1]) | IL-7 release (monocytes [1]) | MCP-1 release (monocytes [1]) | MIG release (monocytes [1]) | MIP-1α release (monocytes [1]) | MIP-1β release (monocytes [1]) | RANTES release (monocytes [1]) | VEGF release (monocytes [1]) | GM-CSF release (monocytes [1]) | other results
GM-CSF: Recombinant human GM-CSF, produces macrophage 1 (Mφ1) [reference compound] | 10.85 ± 0.22 | 74.85 ± 2.60 | 505.18 ± 118.32 | 14.33 ± 1.27 | 13.5 ± 0.47 | 47.16 ± 1.23 | 11.82 ± 0.98 | 26.89 ± 0.16 | 15362.1 ± 7902.6 | 17.21 ± 1.30 | 72.20 ± 6.18 | 70.42 ± 19.71 | 5.42 ± 1.85 | 15.88 ± 2.99 |  | 
LL-37 | 10.28 ± 0.66 | 51.79 ± 3.38 | 772.94 ± 126.71 | 9.93 ± 0.14 | 12.13 ± 0.88 | 32.38 ± 7.04 | 7.16 ± 0.59 | 11.93 ± 1.96 | 7720.3 ± 972.2 | 7.16 ± 1.31 | 53.17 ± 12.97 | 72.41 ± 9.86 | 10.24 ± 3.87 | 3.88 ± 0.41 | 3.96 ± 0.30 | IL-1ra, IL-10, IL-12, IP-10, GM-CSF production in response to LPS (monocytes [1]; 6-day cells, 100 ng/mL LPS 18 hours, versus M-CSF/RANKL-differentiated monocytes): increased production; IL-1ra release versus other macrophage lineages (monocytes [1]; 6 days): highest levels; IL-1β release versus other macrophage lineages (monocytes [1]; 6 days): lowest level; IL-6 release versus macrophages generated by the other methods (monocytes [1]; 6 days): significantly less; IP-10 release versus macrophages generated by the other methods (monocytes [1]; 6 days): increased; IL-1ra release versus osteoclasts (monocytes [1]; all time points analyzed): higher levels; IL-1β, IL-6, MCP-1 release versus osteoclasts (monocytes [1]; all time points analyzed): lower levels; doses that led to decreased cell numbers (monocytes [2]): ≥ 10 µM; cell number versus untreated controls (monocytes [2]; 5 μM, 6 days): significantly higher than untreated controls; cell morphology (monocytes [2]; 6 days of treatment): differentiated into large round adherent cells; survival in terms of cell numbers (monocytes [2]; after 28 days, versus M-CSF/RANKL-derived osteoclasts): survive better than M-CSF/RANKL-derived osteoclasts; dose of maximum effect (monocytes [2]; monocyte differentiation and cell number): 5 µM; structures formed on Osteologic Discs (monocytes [3]; 3 weeks, cells removed by bleach, LL-37 5 μM, M-CSF/RANKL both 25 ng/mL): formed refractile specks on the discs instead of classical absorption pits; von Kossa staining of granules (mineralization) (monocytes [3]; 5 weeks of co-culture): positive von Kossa staining; phagocytic function (monocytes [4]): retain their phagocytic function; expression of CD163, DC-SIGN, CD14 versus other macrophage lineages (monocytes [5]): lower levels; toxicity of LL-37 (monocytes [6]): > 10 µM
M-CSF: Recombinant human M-CSF, produces macrophage 2 (Mφ2) (protein, UniProt P09603 33-554, looked up) Macrophage colony-stimulating …: EEVSEYCSHMIGSGHLQSLQRLIDSQMETSCQITFEFVDQEQLKDPVCYLKKAFLLVQDIMEDTMRFRDNTPNAIAIVQLQELSLRLKSCFTKDYEEHDKACVRTFYETPLQLLEKVKNVFNETKNLLDKDWNIFSKNCNNSFAECSSQDVVTKPDCNCLYPKAIPSSDPASVSPHQPLAPSMAPVAGLTWEDSEGTEGSSLLPGEQPLHTVDPGSAKQRPPRSTCQSFEPPETPVVKDSTIGGSPQPRPSVGAFNPGMEDILDSAMGTNWVPEEASGEASEIPVPQGTELSPSRPGGGSMQTEPARPSNFLSASSPLPASAKGQQPADVTGTALPRVGPVRPTGQDWNHTPQKTDHPSALLRDPPEPGSPRISSLRPQGLSNPSTLSAQPQLSRSHSSGSVLPLGELEGRRSTRDRRSPAEPEGGPASEGAARPLPRFNSVPLTDTGHERQSEGSFSPQLQESVFHLLVPSVILVLLAVGGLLFYRWRRRSHQEPQRADSPLEQPEGSPLTQDDRQVELPV | 11.54 ± 0.31 | 75.71 ± 5.78 | 664.33 ± 112.85 | 19.83 ± 1.19 | 14.67 ± 1.06 | 44.62 ± 4.89 | 11.07 ± 0.95 | 24.83 ± 1.68 | 34236.5 ± 1606.8 | 15.39 ± 2.01 | 41.62 ± 2.63 | 47.26 ± 1.46 | 10.19 ± 1.38 | 22.12 ± 1.39 | 25.2 ± 5.51 | 
